Results: patent US5728563A, “Cyclic nucleotide phosphodiesterase and a method for production thereof” (Taisho Pharmaceutical Co., Ltd., priority 1993, dated 1998)
“Also recorded” adds a separate entry of the source.

Tests used:
Format in all cases: biochemical
[1] = test system: cyclic nucleotide phosphodiesterase (the enzyme of the present invention) isolated from rat cerebral cortex; assay: Effect of metal ions on the enzymatic activity
Description: (§1) The mixture is reacted at 30° C. Ten minutes after, the reaction mixture is put in a heat bath of 100° C. to terminate the reaction in 5 minutes. That is, the enzyme of the present invention is inactivated by heating at 100° C. A test tube charged with the reaction mixture is then ice-cooled. Next, 50 μg of snake venom, which contains 5'-nucleotidase, is added to and reacted with the reaction mixture at 30° C. for 10 minutes. […] 5'-AMP, which is then with 5'-nucleotidase in snake venom to form [8-^3 H] adenosine. After 4 ml of water is added to this reaction mixture, the mixture is adsorbed onto a column packed with cation exchange resin (AG50 WX4, Bio-Rad). After thoroughly rinsing, the reaction product [8-^3 H] adenosine is eluted with 1.5 ml 3N NH4 OH. The radioactivity of the eluted [8-^3 H] adenosine is measured to determine the enzymatic activity of the present invention.

[2] = biological target: cyclic nucleotide phosphodiesterase (the enzyme of the present invention) isolated from rat cerebral cortex; assay: Effects of inhibitors on the enzymatic activity (two-step assay, cAMP hydrolysis); conditions: for IC50: enzymatic activity in the absence of inhibitor made 100%; for inhibition compared to PDEI, PDEIII or PDEIV: comparison with the known isozyme that the inhibitor acts on
Description: The activity of the enzyme of the present invention was determined by the two-step assay (Masuoka et al., Biochem. Biophys. Res. Commun., 169, 315-322, 1990).
Using various inhibitors which are known to inhibit the activity of PDEI, III or IV, the enzymatic activity of the enzyme of the present invention was measured by varying the concentration of these inhibitors.
as §1
The enzymatic activity of the enzyme of the present invention was measured by varying the concentrations of various inhibitors. […] In more detail, during the reaction with the enzyme of the present invention in assaying for the enzymatic activity described in Example, an inhibitor having various concentrations was further added to the reaction mixture to determine the enzymatic activity.

[3] = test system: cyclic nucleotide phosphodiesterase (the enzyme of the present invention) isolated from rat cerebral cortex; assay: Effect of activators (calcium-calmodulin, cGMP) on cAMP hydrolysis; conditions: 0.4 μg/ml calmodulin plus 0.2 mM calcium chloride versus 2 mM EGTA; or 10 μM cGMP
Description: Effects on the enzyme of the present invention were analyzed by adding 0.4 μg/ml calmodulin purified from bovine brain and 0.2 mM calcium chloride.
The mixture is reacted at 30° C. Ten minutes after, the reaction mixture is put in a heat bath of 100° C. to terminate the reaction in 5 minutes. That is, the enzyme of the present invention is inactivated by heating at 100° C. A test tube charged with the reaction mixture is then ice-cooled. Next, 50 μg of snake venom, which contains 5'-nucleotidase, is added to and reacted with the reaction mixture at 30° C. for 10 minutes. […] After 4 ml of water is added to this reaction mixture, the mixture is adsorbed onto a column packed with cation exchange resin (AG50 WX4, Bio-Rad). After thoroughly rinsing, the reaction product [8-^3 H] adenosine is eluted with 1.5 ml 3N NH4 OH. The radioactivity of the eluted [8-^3 H] adenosine is measured to determine the enzymatic activity of the present invention.

[4] = test system: cyclic nucleotide phosphodiesterase (the enzyme of the present invention) isolated from rat cerebral cortex; assay: Substrate specificity, Km by double reciprocal plots; conditions: substrate varied 0.06 μM to 100 μM

| Compound | effect as metal cation / cofactor for the enzymatic reaction [1] | IC50 [2] | inhibition compared to PDEI, PDEIII or PDEIV [2] | also measured |
| --- | --- | --- | --- | --- |
| [Ba+2] [Ba^2+] | no ability as a cofactor |  |  |  |
| [Ca+2] [Ca^2+] | no ability as a cofactor |  |  |  |
| [Co+2] [Co^2+] |  |  |  | concentrations with inhibitory effect [1]: above 100 μM; concentrations with stimulatory effect [1]: less than 100 μM |
| [Cu+2] [Cu^2+] | no ability as a cofactor |  |  |  |
| CC(C)Cn1c(=O)n(C)c(=O)c2[nH]cnc21 [IBMX, 3-isobutyl-1-methylxanthine] |  | 26.5 ± 2.5 µM |  |  |
| [Cl-].[Cl-].[Mg+2] [Magnesium, magnesium chloride] | most efficient metal cation |  |  | concentration at which the enzyme was activated [1]: 1 µM; concentration at which the maximum effect/activity was observed [1]: over 5 mM |
| [Mn+2] [Manganese] | relatively stimulatory effect |  |  |  |
| [Ni+2] [Ni^2+] | no ability as a cofactor |  |  |  |
| CCCCOc1cc(CC2CNC(=O)N2)ccc1OC (centres unmarked) [Ro20-1724, 4-(3-buthoxy-4-methoxybenzyl)-2-imidazolidinone] |  | > 300 µM | less inhibited |  |
| CC(=O)Nc1ccc(-c2c[nH]c(=O)cn2)cc1 [SK&F94120, 5-(4-acetamidophenyl)pyrazin-1H-one] |  | > 300 µM | not inhibited |  |
| [Zn+2] [Zn^2+] | no ability as a cofactor |  |  |  |
| Nc1nc2c(ncn2[C@@H]2O[C@@H]3COP(=O)(O)O[C@H]3[C@H]2O)c(=O)[nH]1 [cGMP, cyclic guanosine 3',5'-monophosphate] |  |  |  | activation of the enzyme / sensitivity of the enzymatic activity [3]: insensitive; also recorded: not activated; Km [4]: 1.78 µM |
| O=C1CCc2cc(OCCCCc3nnnn3C3CCCCC3)ccc2N1 [cilostazol] |  | > 300 µM | not inhibited |  |
| COC(=O)C1=C(C)NC(C)=C(C(=O)OCCN(C)Cc2ccccc2)C1c1cccc([N+](=O)[O-])c1 (centres unmarked) [nicardipine] |  | > 300 µM | less inhibited | IC50 ([2]; unit inferred): > 300 µM |
| COc1ccc(Cc2nccc3cc(OC)c(OC)cc23)cc1OC [papaverine] |  |  |  | Ki ([2]; Dixon plots, varying cAMP and papaverine concentrations, read-out: inhibition constant (Ki value)): 0.036 µM |
| COc1ccc(C2CNC(=O)C2)cc1OC1CCCC1 (centres unmarked) [rolipram] |  | > 300 µM | less inhibited |  |
